Data reported in patent publication US20240181125A1, “COMPOSITIONS AND METHODS FOR SCARLESS WOUND HEALING IN DIABETES” (Washington University, priority 2022, published 2024).
Entries after “also recorded” stand apart in the source; their conditions may differ. Bridge positions count the residues as written; N and C are the ends. Peptide text beside a SMILES is read from it. * marks the point of attachment. FITC = O=C1OC2(c3ccc(O)cc3Oc3cc(O)ccc32)c2ccc(NC(=S)*)cc21

Legend:
wounds of db/+ mice = test: Wound assay on non-diabetic db/+ mice; settings: mouse, in vivo
Procedure: The same wound assay was performed on db/+ mice and monitored the wound closure for eight days (FIG. 11A). The No-treatment, Gel, and PTβR2I/Gel groups all had similar healing rates, with wound sizes less than 10% of the original after 8 days (FIG. 11B and C). To delineate the mechanism, in vitro immunoblotting was performed on dermal fibroblasts under normal glucose conditions that mimicked the microenvironment of db/+ mice (FIG. 11D).

[1] = tested on: diabetic wounds of db/db mice; test: Example 5 wound dressings on full-thickness excisional diabetic wounds; format: in vivo
Procedure: After three days post-wound assay on db/db mice, the wounded tissues were collected and lysed. The protein concentrations were quantified by Bradford assay. The samples were tested using a Proteome Profiler Mouse Angiogenesis Array kit (R&D Systems) and a Mouse Cytokine Array kit (R&D Systems). The intensities of the dots on the membranes in the kits were quantified using Image Lab software. Eight-week-old, female db/db mice were used. Carprofen tablets (1/4 tablet per mouse) were given orally 48 hours before surgery and continued for seven days after the surgery as an analgesic. One day before surgery, the blood glucose levels of the mice were tested with a glucometer to confirm they were above 300 mg/dL. The mice were anesthetized by isoflurane inhalation, and the dorsal surface was thoroughly shaved. Then a 5-mm diameter biopsy punch (VWR) was used to create two symmetric full-thickness wounds on the back of each mouse. Next, 100 μL of liquid wound dressing, with or without 50 μg/mL of PTβ[…], was applied topically to the wound sites. The mice were observed every other day, and digital photographs of the wounds, with a ruler at the side, were acquired by a digital camera. Wound sizes were calculated using Image J. For in vitro tests, protein lysates were collected from HDFs. Pre-cooled cell scrapers were used to detach the cells, and the cells were re-suspended in RIPA lysis buffer with the inhibitor cocktail. For in vivo tests, wound skin tissues were washed three times with pre-cooled DPBS, dissected into small pieces, and re-suspended in RIPA lysis buffer containing protease and phosphatase inhibitors. […] After centrifugation at 12,000 g for 20 min, the supernatants were collected, and protein concentrations were measured using a Bradford protein assay kit (Bio-rad). […] Immunoblots were then washed with PBST and detected with a WesternBright HRP substrate detection kit (Advansta). […] The epidermal thickness was calculated from the MTS images in the wounded region. […] Images were acquired by Olympus confocal microscope and analyzed using ImageJ.

HDFs [2] = test: Cell proliferation (dsDNA) under high glucose and TGFβ1, HDF; format: cell-based, human; settings: high glucose, TGFβ1 10 ng/ml, PTβR2I 10 μg/mL; p<0.001
Procedure: HDFs, HaCaTs, and HAECs were seeded in 96-well plates at respective densities of 1.5×10^4 cells/mL, 2×10^4 cells/mL, and 2×10^4 cells/mL. High glucose (4.5 g/L) basal medium with 1% P/S was used for the culture. After 24 hours, TGFβ1 (10 ng/ml) or TGFβ1 (10 ng/ml)/PTβR2I (10 μg/mL) was added to the medium. The culture continued for three days. The medium was then replaced by papain solution and incubated at 60° C. for 24 hours. The dsDNA content was tested using a Quant-iT™ PicoGreen dsDNA Assay Kit (Invitrogen).

HDFs [3] = test: mRNA expression (RT-PCR), HDFs; format: cell-based, human; settings: high glucose and TGFβ1
Procedure: (§1) To determine the mRNA expression of the cells (HDFs, HaCaTs, and HAECs) treated with TGFβ1 (10 ng/ml) or TGFβ1 (10 ng/ml)/PTβR2I (10 μg/mL) under high glucose conditions, RNA was extracted using Trizol (Invitrogen) and reverse transcribed using a cDNA synthesis kit (Applied Biosystems). Gene expression was performed by real-time RT-PCR, using Maxima SYBR Green/Fluorescein Master Mix (Thermofisher) and selected primer pairs, shown in Table 1 below. β-actin served as the housekeeping gene. The ΔΔCt method was used for data analysis.

HAECs = test: 2D scratch migration assay, HAEC; format: cell-based, human; settings: high glucose and TGFβ1, 36 hours
Procedure: HDFs, HaCaTs, and HAECs were cultured in 6-well plates using serum-free high glucose (4.5 g/L) basal medium with 1% P/S. After the cells reached confluency, a 200-μL pipet tip was used to scrape the cell monolayer. Then 3 mL of medium containing TGFβ1 (10 ng/ml) or TGFβ1 (10 ng/ml)/PTβR2I (10 μg/mL) was added to the wells. The cells were imaged at predetermined time points using a bright-field microscope. The distances between the scratch walls were measured using ImageJ to calculate the migration ratio

[4] = tested on: THP-1-derived CD86+M1 macrophages; test: mRNA expression (RT-PCR), M1 macrophages; format: cell-based, human; settings: high glucose and TGFβ1
Procedure: Macrophages were derived from THP-1, a human monocytic cell line (ATCC). THP-1 cells were treated with 100 ng/ml phorbol 12-myristate 13-acetate (PMA, Millipore-Sigma, P1585) for 48 hours, followed by 24 hours in RPMI 1640 medium (ATCC) with 10% FBS and 1% P/S. To induce differentiation into M1 macrophages, the cells were treated with 100 pg/mL lipopolysaccharide (LPS, Millipore-Sigma) and 20 ng/ml interferon-gamma (IFN-γ, Millipore-Sigma) for 48 hours.
as §1

In the case of `CC(C)C[C@@H]1NC(=O)CNC(=O)[C@@H](NC(=O)[C@@H](N)CCC(=O)O)CSSC[C@@H](C(=O)N[C@@H](CCCCNC(=S)Nc2ccc3c(c2)C(=O)OC32c3ccc(O)cc3Oc3cc(O)ccc32)C(=O)O)NC(=O)[C@H](CC(C)C)NC(=O)[C@H](CCCNC(=N)N)NC(=O)[C@H](Cc2c[nH]c3ccccc23)NC(=O)[C@H](C(C)C)NC(=O)[C@H](CCCNC(=N)N)NC(=O)[C@H](CC(=O)O)NC(=O)[C@@H]2CCCN2C(=O)[C@H](CCCNC(=N)N)NC(=O)CNC(=O)[C@H](C(C)C)NC(=O)[C@@H]2CCCN2C(=O)[C@H](CC(C)C)NC1=O` [PTβR2I, ECGLLPVGRPDRVWRLCK-FITC] (H-ECGLLPVGRPDRVWRLCK(FITC)-OH; disulfide 2-17; N-terminus and C-terminus assumed), the “efficacy on db/+ mice” value (wounds of db/+ mice) is reported as “not effective”, the “expression of p-Smad2/3 in wounded skin” value ([1]; day 3) is reported as “downregulated” and the “expressions of p-Smad2/3 and α-SMA in wounded skin” value ([1]; day 8) is reported as “without compromising”. The “expression of p-p38 in wounded skin” value ([1]; days 3 and 8, vs Gel group) was “downregulated; also recorded: continued to downregulate”, the “proliferation (dsDNA, day 3)” value (HDFs [2]) was “Significantly improved proliferation” and the IGF1 expression (HDFs [3]) was “significantly upregulated”. For the same compound, the “IL1B mRNA expression” value (HDFs [3]) was “significantly reduced”, the “IL6 mRNA expression” value (HDFs [3]) was “significantly reduced” and the “TNFA mRNA expression” value (HDFs [3]) was “significantly reduced”. For the same compound, the migration (HAECs) was “significantly higher number of cells had migrated”, the “IL6 mRNA expression” value [4] was “significantly reduced” and the PDGFBB gene expression [4] was “significantly enhanced”.
